# Where a name gives a salt, the structure may show the parent alone.
# Legend:
# [1] = test system: patients suffering from lower urinary tract symptoms; experiment: Clinical test to patients suffering from lower urinary tract symptoms (twelve-week test); assay type: in vivo, human; conditions: total score for subjective symptom, QOL index and test on functions
# Procedure: A clinical test was carried out under the following conditions using the patients suffering from lower urinary tract symptoms. Subjects: eighteen patients diagnosed as lower urinary tract symptoms, i.e. urinary disturbance without clear organic or neurological abnormality in lower urinary tract (15 males and 3 female, age: 57.2±14.2). Test drug and administering method: One capsule containing 0.2 mg of tamsulosin hydrochloride was orally administered once daily after breakfast for four weeks and, after that, the dose after 4 weeks was controlled in consideration of the following criterion, and the dose was orally administered once daily after breakfast. [table] Test period: twelve weeks (84 days) (4 weeks (28 days) for 8 males) Observed items: Evaluations and measurements were made for the following items before and after the administration. (1) Total score for subjective symptoms Total scores for the following <1>˜<7> before and after the administration were obtained in the same way as in Test Example 1. <1> Feel of residual urine, <2> Urination within two hours, <3> Break of urinary stream, <4> Urgency, <5> Force of urinary stream, <6> Straining upon urination and <7> Frequency of urination at night. (2) QOL Index “How do you think if the present urinating state continues in future as well?” (3) Test on Functions <1> maximum urinary stream rate <2> average urinary stream rate
# [2] = test system: patients suffering from lower urinary tract symptoms; experiment: Clinical test to patients suffering from lower urinary tract symptoms (four-week test); assay type: in vivo, human; conditions: total score for subjective symptom and QOL index
# Procedure: A clinical test was carried out under the following conditions using the patients suffering from lower urinary tract symptoms. (cf. Chapter 1: Indexes for Evaluation of Prostatic Hypertrophy in “Guideline for Clinical Test for Urinary Disturbance” published by Iyaku Tosho Shuppan) Subjects: four patients diagnosed as lower urinary tract symptoms, i.e. urinary disturbance without clear organic or neurological abnormality in lower urinary tract (3 males and 1 female). Test drug and administering method:. One capsule containing 0.2 mg of tamsulosin hydrochloride was orally administered once daily after breakfast. Test period: four weeks (28 days) Observed items: Evaluations and measurements were made for the following items before and after the administration. (1) Total score for subjective symptoms Questioning was done to the patients for the following items and the total score was obtained. (2) QOL Index With regard to an index for quality of life (QOL), a questioning that “How do you think if the present urinary condition continues in future as well?” was done as a total diagnosis concerning the urinary disturbance and any of the following evaluations was collected.
smiles,measurement,setting,value
"CCOc1ccccc1OCCN[C@H](C)Cc1ccc(OC)c(S(N)(=O)=O)c1 [tamsulosin hydrochloride, (R)(−)-5-[2-[[2-(o-ethoxyphenoxy)ethyl]amino]propyl]-2-methoxybenzene-sulfonamide]",Overall conclusion on efficacy as therapeutic agent for lower urinary tract symptoms,[1],confirmed to be effective
same,Overall conclusion on efficacy as therapeutic agent for lower urinary tract symptoms,[2],confirmed to be effective

# Source: patent US20060287395A1, “Pharmaceutical composition for the therapy of lower urinary tract symptoms” (ASTELLAS PHARMA INC., priority 1999, published 2006)
